Results: patent US20240360157A1, “TYK2 INHIBITORS” (BIOGEN MA INC., priority 2021, published 2024)
Structures can show the parent of a compound that is named as a salt.

What was measured:
Assay type in all cases: biochemical
[1] = target: human JAK3 catalytic kinase (JH1) domain (Homo sapiens (Human), UniProt P52333); assay: ADP-Glo Kinase Assay, recombinant JAK3 catalytic kinase (JH1) domain; details: recombinant JH1 domain 0.3 nM, 4 μM ATP, JAK3-974 peptide, mean, read-out: JAK3 biochem IC50 (nM) Mean
Chain of human JAK3 catalytic kinase (JH1) domain (P52333 822-1111): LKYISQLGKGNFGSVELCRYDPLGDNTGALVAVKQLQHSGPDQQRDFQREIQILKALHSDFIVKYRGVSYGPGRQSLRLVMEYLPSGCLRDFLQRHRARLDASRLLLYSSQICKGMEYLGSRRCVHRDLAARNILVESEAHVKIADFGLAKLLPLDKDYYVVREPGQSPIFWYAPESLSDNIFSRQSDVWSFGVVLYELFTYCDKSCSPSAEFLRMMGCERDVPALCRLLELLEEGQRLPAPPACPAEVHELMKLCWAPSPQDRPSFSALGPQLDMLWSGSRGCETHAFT
How it was run: (§1)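 Kinase 4 nM JAK1 / 0.2 nM JAK2 / 0.3 nM JAK3 / 2 nM TYK2; 50 μM peptide; 100 min. Unused ATP depleted, ADP→ATP, luciferase luminescence. 11-pt 3-fold series from 10 or 1 μM; normalized, 4PL fit → IC50.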

[2] = target: human TYK2 catalytic kinase (JH1) domain (Homo sapiens (Human), UniProt P29597); assay: ADP-Glo Kinase Assay, recombinant TYK2 catalytic kinase (JH1) domain; details: recombinant JH1 domain 2 nM, 10 μM ATP, JAK3-974 peptide, mean, read-out: TYK2 biochem IC50 (nM) Mean
Chain of human TYK2 catalytic kinase (JH1) domain (P29597 897-1176): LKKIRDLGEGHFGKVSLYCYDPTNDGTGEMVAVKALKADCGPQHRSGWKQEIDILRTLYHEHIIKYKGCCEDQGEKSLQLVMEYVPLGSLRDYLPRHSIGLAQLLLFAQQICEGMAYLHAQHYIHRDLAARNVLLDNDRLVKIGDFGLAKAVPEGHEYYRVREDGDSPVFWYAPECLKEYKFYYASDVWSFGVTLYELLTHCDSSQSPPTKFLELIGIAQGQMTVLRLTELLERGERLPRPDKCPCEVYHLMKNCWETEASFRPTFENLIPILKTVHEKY
How it was run: as §1

[3] = target: human JAK2 catalytic kinase (JH1) domain (Homo sapiens (Human), UniProt O60674); assay: ADP-Glo Kinase Assay, recombinant JAK2 catalytic kinase (JH1) domain; details: recombinant JH1 domain 0.2 nM, 15 μM ATP, JAK3-974 peptide, mean, read-out: JAK2 biochem IC50 (nM) Mean
Chain of human JAK2 catalytic kinase (JH1) domain (O60674 849-1124): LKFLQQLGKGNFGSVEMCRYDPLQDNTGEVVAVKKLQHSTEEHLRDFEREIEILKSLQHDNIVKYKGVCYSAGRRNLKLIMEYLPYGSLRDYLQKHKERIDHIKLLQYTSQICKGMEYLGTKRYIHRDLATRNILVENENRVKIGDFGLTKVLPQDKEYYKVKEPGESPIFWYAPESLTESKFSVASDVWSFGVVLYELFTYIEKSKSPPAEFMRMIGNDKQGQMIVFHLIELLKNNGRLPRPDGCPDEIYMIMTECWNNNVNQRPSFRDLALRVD
How it was run: as §1

[4] = target: human JAK1 catalytic kinase (JH1) domain (Homo sapiens (Human), UniProt P23458); assay: ADP-Glo Kinase Assay, recombinant JAK1 catalytic kinase (JH1) domain; details: recombinant JH1 domain 4 nM, 35 μM ATP, JAK3-342 peptide, mean, read-out: JAK1 biochem IC50 (nM) Mean
Chain of human JAK1 catalytic kinase (JH1) domain (P23458 875-1153): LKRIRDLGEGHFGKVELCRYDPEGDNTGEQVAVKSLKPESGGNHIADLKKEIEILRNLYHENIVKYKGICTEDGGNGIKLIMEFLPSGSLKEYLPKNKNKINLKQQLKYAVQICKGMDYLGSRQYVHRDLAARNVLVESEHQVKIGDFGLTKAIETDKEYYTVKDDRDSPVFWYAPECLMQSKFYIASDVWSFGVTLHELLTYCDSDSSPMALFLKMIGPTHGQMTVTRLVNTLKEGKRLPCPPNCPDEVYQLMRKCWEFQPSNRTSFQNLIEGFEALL
How it was run: as §1

Row | SMILES | IC50 [1] [nM] | IC50 [2] [nM] | IC50 [3] [nM] | IC50 [4] [nM]
1 | O=C(C1CC1)N1C2CCC1CN(c1ncnn3cc(-c4cnn([C@@H]5CCOC5)c4)cc13)C2 [Example 156, cyclopropyl(3-(6-(1-((R)-tetrahydrofuran-3-yl)-1H-pyrazol-4-yl)pyrrolo[2,1-f][1,2,4]triazin-4-yl)-3,8-diazabicyclo[3.2.1]octan-8-yl)methanone] | 3850 | 251 | 3860 | 1500
2 | Cn1cc(-c2cc3c(N4CC5CCC(C4)N5C(=O)[C@@H]4C[C@H]4F)ncnc3[nH]2)cn1 [Example 235, ((1S,2R)-2-fluorocyclopropyl)(3-(6-(1-methyl-1H-pyrazol-4-yl)-7H-pyrrolo[2,3-d]pyrimidin-4-yl)-3,8-diazabicyclo[3.2.1]octan-8-yl)methanone] | 338 | 5.3 | 106 | 117
3 | Cn1cc(-c2cc3c(N4CC5CCC(C4)N5C(=O)[C@H]4C[C@H]4F)ncnn3c2)cn1 (racemic) [Example 60, Rac-((1R,2R)-2-fluorocyclopropyl)(3-(6-(1-methyl-1H-pyrazol-4-yl)pyrrolo[2,1-f][1,2,4]triazin-4-yl)-3,8-diazabicyclo[3.2.1]octan-8-yl)methanone] | 3080 | 563 | 8090 | 1340
4 | CN(C)c1cc(-c2cc3c(N4CC5CCC(C4)N5C(=O)[C@@H]4C[C@H]4F)ccnn3c2)cnn1 [Example 138, (3-(6-(6-(dimethylamino)pyridazin-4-yl)pyrrolo[1,2-b]pyridazin-4-yl)-3,8-diazabicyclo[3.2.1]octan-8-yl)((1S,2R)-2-fluorocyclopropyl)methanone] | 3930 | 13.8 | 395 | 57
5 | O=C(C1CCC1(F)F)N1C2CCC1CN(c1ncnn3cc(-c4cnn(C(F)F)c4)cc13)C2 (stereo not shown) [Example 11, (2,2-difluorocyclobutyl)(3-(6-(1-(difluoromethyl)-1H-pyrazol-4-yl)pyrrolo[2,1-f][1,2,4]triazin-4-yl)-3,8-diazabicyclo[3.2.1]octan-8-yl)methanone] | 6670 | 506 | 8370 | 1650
6 | O=C(C1CC1)N1C2CCC1CN(c1ncnn3cc(-c4cnn(C5CCOC5)c4)cc13)C2 (stereo not shown) [Example 152] | 2590 | 145 | 2150 | 1670
7 | CCC(=O)N1C2CCC1CN(c1ncnn3cc(-c4cnn(C)c4)cc13)C2 [Example 57, 1-(3-(6-(1-methyl-1H-pyrazol-4-yl)pyrrolo[2,1-f][1,2,4]triazin-4-yl)-3,8-diazabicyclo[3.2.1]octan-8-yl)propan-1-one] | 7850 | 941 | 10000 | 5140
8 | Cn1cc(-c2cn3nccc(N4CC5CCC(C4)N5C(=O)[C@@H]4C[C@H]4F)c3n2)cn1 [Example 252, ((1S,2R)-2-fluorocyclopropyl)(3-(2-(1-methyl-1H-pyrazol-4-yl)imidazo[1,2-b]pyridazin-8-yl)-3,8-diazabicyclo[3.2.1]octan-8-yl)methanone] | 269 | 4 | 28 | 28
9 | Cn1cc(-c2cc3c(N4CC5CCC(C4)N5C(=O)C(F)(F)F)ncnn3c2)cn1 [Example 87, 2,2,2-trifluoro-1-(3-(6-(1-methyl-1H-pyrazol-4-yl)pyrrolo[2,1-f][1,2,4]triazin-4-yl)-3,8-diazabicyclo[3.2.1]octan-8-yl)ethan-1-one] | 2550 | 266 | 4870 | 1200
10 | CNc1cc(-c2nc3c(N4CC5CCC(C4)N5C(=O)[C@@H]4C[C@H]4F)ccnc3[nH]2)ccn1 [Example 217, ((1S,2R)-2-fluorocyclopropyl)(3-(2-(2-(methylamino)pyridin-4-yl)-3H-imidazo[4,5-b]pyridin-7-yl)-3,8-diazabicyclo[3.2.1]octan-8-yl)methanone] | 107 | 0.4 | 8 | 3
11 | N#Cc1cc(-c2cc3c(N4CC5CCC(C4)N5C(=O)[C@@H]4C[C@H]4F)ncnn3c2)ccn1 [Example 95, 4-(4-(8-((1S,2R)-2-fluorocyclopropane-1-carbonyl)-3,8-diazabicyclo[3.2.1]octan-3-yl)pyrrolo[2,1-f][1,2,4]triazin-6-yl)picolinonitrile] | 7940 | 45.5 | 942 | 741
12 | Cn1cc(-c2cc3c(N4CC5CCC(C4)N5C(=O)[C@@H]4C[C@H]4F)ccnn3c2)ccc1=O [Example 172] | 595 | 2.6 | 54 | 32
13 | Cn1cc(-c2cn3ncc(F)c(N4CC5CCC(C4)N5C(=O)[C@@H]4C[C@H]4F)c3n2)cn1 (stereo in doubt) [Example 141, (3-(7-fluoro-2-(1-methyl-1H-pyrazol-4-yl)imidazo[1,2-b]pyridazin-8-yl)-3,8-diazabicyclo[3.2.1]octan-8-yl)((1S,2R)-2-fluorocyclopropyl)methanone] | 285 | 9.4 | 97 | 57
14 | Cn1cc(-c2cc3c(N4CC5CCC(C4)N5C(=O)[C@@H]4C[C@H]4F)ccnn3c2)cn1 [Example 159, ((1S,2R)-2-fluorocyclopropyl)(3-(6-(1-methyl-1H-pyrazol-4-yl)pyrrolo[1,2-b]pyridazin-4-yl)-3,8-diazabicyclo[3.2.1]octan-8-yl)methanone] | 263 | 1.1 | 30 | 51
15 | O=C(C1CC1(F)F)N1C2CCC1CN(c1ncnn3cc(-c4cnn(C(F)F)c4)cc13)C2 (stereo not shown) [Example 49, (2,2-difluorocyclopropyl)(3-(6-(1-(difluoromethyl)-1H-pyrazol-4-yl)pyrrolo[2,1-f][1,2,4]triazin-4-yl)-3,8-diazabicyclo[3.2.1]octan-8-yl)methanone] | 4900 | 81 | 2100 | 475
16 | Cn1cc(-c2cc3c(N4CC5CCC(C4)N5C(=O)C4CCC4)ncnn3c2)cn1 [Example 67, Cyclobutyl(3-(6-(1-methyl-1H-pyrazol-4-yl)pyrrolo[2,1-f][1,2,4]triazin-4-yl)-3,8-diazabicyclo[3.2.1]octan-8-yl)methanone] | 4440 | 365 | 7460 | 3230
17 | COc1cc(-c2cc3c(N4CC5CCC(C4)N5S(=O)(=O)C4CC4)ccnc3[nH]2)ccn1 [Example 194] | 612 | 21 | 80 | 116
18 | O=C(C1CC(O)(C(F)(F)F)C1)N1C2CCC1CN(c1ncnn3cc(-c4cnn(C(F)F)c4)cc13)C2 (stereo not shown) [Example 36, (3-(6-(1-(difluoromethyl)-1H-pyrazol-4-yl)pyrrolo[2,1-f][1,2,4]triazin-4-yl)-3,8-diazabicyclo[3.2.1]octan-8-yl)(3-hydroxy-3-(trifluoromethyl)cyclobutyl)methanone trifluoroacetate] | 5840 | 968 | 7490 | 2200
19 | COc1cc(-c2cc3c(N4CC5CCC(C4)N5C(=O)[C@@H]4C[C@H]4F)ccnn3c2)ccn1 [Example 88, ((1S,2R)-2-fluorocyclopropyl)(3-(6-(2-methoxypyridin-4-yl)pyrrolo[1,2-b]pyridazin-4-yl)-3,8-diazabicyclo[3.2.1]octan-8-yl)methanone] | 604 | 1.9 | 46 | 23
